Results: US9302999B2, “Substituted triazoles as herbicides” (E. I. DU PONT DE NEMOURS AND COMPANY, priority 2012, dated 2016)

Key:
Type in all cases: in vivo
[1] = system: foxtail, giant (giant foxtail, Setaria faberii); assay: Test A pre-/postemergence: foxtail, giant; details: for Foxtail, Giant plant response rating: Postemergence; for Plant response rating, Foxtail, Giant: Preemergence
Procedure, shortened: (§1)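 Soil medium was loam blended with sand; treatments pre- and postemergence were applied concurrently, postemergence at one- to two-leaf stage. Approximately ten days in greenhouse preceded visual comparison with untreated controls, scored 0 (no effect) to 100 (complete control).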

[2] = system: soybean (Glycine max); assay: Test C pre-/postemergence: soybean
Procedure, shortened: (§2)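 Preemergence on seeds in loam/sand, postemergence on 2–18 cm (1–4-leaf) plants in peat-based medium; compounds in non-phytotoxic solvent with surfactant. After 13–15 days in greenhouse, visual rating versus controls, 0 (no effect) to 100 (complete control).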

[3] = system: wheat (Triticum aestivum); assay: Test A pre-/postemergence: wheat; details: for Wheat plant response rating: Postemergence; for Plant response rating, Wheat: Preemergence
Procedure, shortened: as §1

[4] = system: nightshade (eastern black nightshade, Solanum ptycanthum); assay: Test C pre-/postemergence: nightshade; details: Preemergence
Procedure, shortened: as §2

[5] = system: wild oat (Avena fatua); assay: Test C pre-/postemergence: wild oat
Procedure, shortened: as §2

[6] = system: pigweed (Amaranthus retroflexus); assay: Test C pre-/postemergence: pigweed
Procedure, shortened: as §2

[7] = system: crabgrass, large (large crabgrass, Digitaria sanguinalis); assay: Test A pre-/postemergence: crabgrass, large; details: for Crabgrass, Large plant response rating: Postemergence; for Plant response rating, Crabgrass, Large: Preemergence
Procedure, shortened: as §1

[8] = system: foxtail, giant (giant foxtail, Setaria faberii); assay: Test C pre-/postemergence: foxtail, giant
Procedure, shortened: as §2

[9] = system: nutsedge, yellow (yellow nutsedge, Cyperus esculentus); assay: Test C pre-/postemergence: nutsedge, yellow
Procedure, shortened: as §2

[10] = system: pigweed (Amaranthus retroflexus); assay: Test A pre-/postemergence: pigweed; details: for Pigweed plant response rating: Postemergence; for Plant response rating, Pigweed: Preemergence
Procedure, shortened: as §1

[11] = 125 g ai/ha, 0 to 100 scale, 0 is no effect, 100 is complete control
[12] = 500 g ai/ha, visual rating on 0 to 100 scale (0 no effect, 100 complete control), approximately ten days
[13] = 125 g ai/ha, 0 to 100 scale where 0 is no effect and 100 is complete control
[14] = 500 g ai/ha, 0 to 100 scale (0 no effect, 100 complete control)
[15] = Postemergence, 31 g ai/ha, scale 0 to 100 (0 no effect, 100 complete control)
[16] = Postemergence, 62 g ai/ha, scale 0 to 100 (0 no effect, 100 complete control)
[17] = Postemergence, 125 g ai/ha, scale 0 to 100, 0 no effect, 100 complete control
[18] = Postemergence, 250 g ai/ha, scale 0 to 100
[19] = Preemergence, 31 g ai/ha, scale of 0 to 100, 0 is no effect, 100 is complete control
[20] = Preemergence, 62 g ai/ha, scale of 0 to 100, 0 is no effect, 100 is complete control
[21] = Preemergence, 125 g ai/ha, scale 0 to 100, 0 no effect, 100 complete control
[22] = Preemergence, 250 g ai/ha, scale 0 to 100, 0 no effect, 100 complete control

Cc1nn(-c2ccc(C(F)(F)F)cc2)nc1Oc1ccnc(C(F)(F)F)c1 [Compound 120]
Foxtail, Giant plant response rating [1, 11]: 80 | Foxtail, Giant plant response rating [1, 12]: 80 | Plant response rating, Foxtail, Giant [1, 13]: 100 | Plant response rating, Foxtail, Giant [1, 14]: 100 | Plant response rating, Soybean [2, 15]: 25 | Plant response rating, Soybean [2, 16]: 25 | Plant response rating, Soybean [2, 17]: 55 | Plant response rating, Soybean [2, 18]: 100 | Plant response rating, Soybean [2, 19]: 0 | Plant response rating, Soybean [2, 20]: 5 | Plant response rating, Soybean [2, 21]: 10 | Plant response rating, Soybean [2, 22]: 20 | Wheat plant response rating [3, 11]: 10 | Wheat plant response rating [3, 12]: 30 | Plant response rating, Wheat [3, 13]: 10 | Plant response rating, Wheat [3, 14]: 20 | Plant response rating, Nightshade ([4]; 31 g ai/ha, scale of 0 to 100, 0 is no effect, 100 is complete control): 95 | Plant response rating, Nightshade ([4]; 62 g ai/ha, scale of 0 to 100, 0 is no effect, 100 is complete control): 95 | Plant response rating, Nightshade ([4]; 125 g ai/ha, scale 0 to 100, 0 no effect, 100 complete control): 95 | Plant response rating, Nightshade ([4]; 250 g ai/ha, scale 0 to 100, 0 no effect, 100 complete control): 95 | Plant response rating, Oat, Wild [5, 15]: 55 | Plant response rating, Oat, Wild [5, 16]: 60 | Plant response rating, Oat, Wild [5, 17]: 80 | Plant response rating, Oat, Wild [5, 18]: 90 | Plant response rating, Oat, Wild [5, 19]: 85 | Plant response rating, Oat, Wild [5, 20]: 90 | Plant response rating, Oat, Wild [5, 21]: 95 | Plant response rating, Oat, Wild [5, 22]: 95 | Plant response rating, Pigweed [6, 15]: 95 | Plant response rating, Pigweed [6, 16]: 98 | Plant response rating, Pigweed [6, 17]: 98 | Plant response rating, Pigweed [6, 18]: 100 | Plant response rating, Pigweed [6, 19]: 100 | Plant response rating, Pigweed [6, 20]: 100 | Plant response rating, Pigweed [6, 21]: 100 | Plant response rating, Pigweed [6, 22]: 100 | Crabgrass, Large plant response rating [7, 11]: 80 | Crabgrass, Large plant response rating [7, 12]: 90 | Plant response rating, Crabgrass, Large [7, 13]: 100 | Plant response rating, Crabgrass, Large [7, 14]: 100 | Plant response rating, Foxtail, Giant [8, 15]: 5 | Plant response rating, Foxtail, Giant [8, 16]: 45 | Plant response rating, Foxtail, Giant [8, 17]: 50 | Plant response rating, Foxtail, Giant [8, 18]: 55 | Plant response rating, Foxtail, Giant [8, 19]: 98 | Plant response rating, Foxtail, Giant [8, 20]: 98 | Plant response rating, Foxtail, Giant [8, 21]: 98 | Plant response rating, Foxtail, Giant [8, 22]: 100 | Plant response rating, Nutsedge, Yellow [9, 15]: 0 | Plant response rating, Nutsedge, Yellow [9, 16]: 0 | Plant response rating, Nutsedge, Yellow [9, 17]: 0 | Plant response rating, Nutsedge, Yellow [9, 18]: 0 | Plant response rating, Nutsedge, Yellow [9, 19]: 0 | Plant response rating, Nutsedge, Yellow [9, 20]: 0 | Plant response rating, Nutsedge, Yellow [9, 21]: 0 | Plant response rating, Nutsedge, Yellow [9, 22]: 0 | Pigweed plant response rating [10, 11]: 90 | Pigweed plant response rating [10, 12]: 100 | Plant response rating, Pigweed [10, 13]: 100 | Plant response rating, Pigweed [10, 14]: 100
